Where two headings read alike, the source gives them in different places.
Experiments:
human PPARalpha = target: T1, human PPARalpha (Homo sapiens, UniProt Q07869); test: cellular PPARalpha assay (luciferase reporter, stably transfected HEK cell line); format: cell-based
T1 construct: amino acids S167-Y468; expressed in transfected cells
T1 sequence (Q07869 167-468): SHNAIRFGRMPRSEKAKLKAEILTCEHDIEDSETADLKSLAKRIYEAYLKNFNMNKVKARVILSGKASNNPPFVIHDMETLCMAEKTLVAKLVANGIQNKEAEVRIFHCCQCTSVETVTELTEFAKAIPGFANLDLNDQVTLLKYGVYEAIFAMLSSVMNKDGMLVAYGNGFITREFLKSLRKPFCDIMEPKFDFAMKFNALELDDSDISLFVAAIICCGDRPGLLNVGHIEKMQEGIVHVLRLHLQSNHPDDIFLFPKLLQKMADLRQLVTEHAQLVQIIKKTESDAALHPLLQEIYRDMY
Method: (§1) The potency of substances which bind to human PPARalpha and activate it in an agonistic manner is analyzed using a stably transfected HEK cell line (HEK=human embryo kidney) which is referred to here as PPARalpha reporter cell line. It contains two genetic elements, a luciferase reporter element (pdeltaM-GAL4-Luc-Zeo) and a PPARalpha fusion protein (GR-GAL4-humanPPARalpha-LBD) which mediates expression of the luciferase reporter element depending on a PPARalpha ligand. The stably and constitutively expressed fusion protein GR-GAL4-humanPPARalpha-LBD binds in the cell nucleus of the PPARalpha reporter cell line via the GAL4 protein portion to the GAL4 DNA binding motifs 5′-upstream of the luciferase reporter element which is stably integrated in the genome of the cell line. There is only weak expression of the luciferase reporter gene in the absence of a PPARalpha ligand if fatty acid-depleted fetal calf serum (cs-FCS) is used in the assay. PPARalpha ligands bind and activate the PPARalpha fusion protein and thereby stimulate the expression of the luciferase reporter gene. The luciferase which is formed can be detected by means of chemiluminescence via an appropriate substrate.
The PPARalpha reporter cell line was prepared in two stages. Firstly, the luciferase reporter element was constructed and stably transfected into HEK cells. For this purpose, five binding sites of the yeast transcription factor GAL4 (Accession # AF264724) were cloned in 5′-upstream of a 68 bp-long minimal MMTV promoter (Accession # V01175). The minimal MMTV promoter section contains a CCAAT box and a TATA element in order to enable efficient transcription by RNA polymerase II. The cloning and sequencing of the GAL4-MMTV construct took place in analogy to the description of Sambrook J. et. al. (Molecular cloning, Cold Spring Harbor Laboratory Press, 1989). Then the complete Photinus pyralis gene (Accession # M15077) was cloned in 3′-downstream of the GAL4-MMTV element. After sequencing, the luciferase reporter element consisting of five GAL4 binding sites, MMTV promoter and luciferase gene was recloned into a plasmid which confers zeocin resistance in order to obtain the plasmid pdeltaM-GAL4-Luc-Zeo. This vector was transfected into HEK cells in accordance with the statements in Ausubel, F. M. et al. (Current protocols in molecular biology, Vol. 1-3, John Wiley & Sons, Inc., 1995).
In a second step, the PPARalpha fusion protein (GR-GAL4-humanPPARalpha-LBD was introduced into the stable cell clone described. For this purpose, initially the cDNA coding for the N-terminal 76 amino acids of the glucocorticoid receptor (Accession # P04150) was linked to the cDNA section coding for amino acids 1-147 of the yeast transcription factor GAL4 (Accession # P04386). The cDNA of the ligand-binding domain of the human PPARalpha receptor (amino acids S167-Y468; Accession # S74349) was cloned in at the 3′-end of this GR-GAL4 construct. The fusion construct prepared in this way (GR-GAL4-humanPPARalpha-LBD) was recloned into the plasmid pcDNA3 (Invitrogen) in order to enable constitutive expression therein by the cytomegalovirus promoter. This plasmid was linearized with a restriction endonuclease and stably transfected into the previously described cell clone containing the luciferase reporter element. The finished PPARalpha reporter cell line which contains a luciferase reporter element and constitutively expresses the PPARalpha fusion protein (GR-GAL4-human PPARalpha-LBD) was isolated by selection with zeocin (0.5 mg/ml) and G418 (0.5 mg/ml).
The activity of PPARalpha agonists is determined in a 3-day assay which is described below: […]

human PPARdelta = target: T2, human PPARdelta (Homo sapiens, UniProt Q03181); test: cellular PPARdelta assay (luciferase reporter, stably transfected HEK cell line); format: cell-based; conditions: GR-GAL4-humanPPARdelta-LBD
T2 construct: amino acids S139-Y441; expressed in transfected cells
T2 sequence (Q03181 139-441): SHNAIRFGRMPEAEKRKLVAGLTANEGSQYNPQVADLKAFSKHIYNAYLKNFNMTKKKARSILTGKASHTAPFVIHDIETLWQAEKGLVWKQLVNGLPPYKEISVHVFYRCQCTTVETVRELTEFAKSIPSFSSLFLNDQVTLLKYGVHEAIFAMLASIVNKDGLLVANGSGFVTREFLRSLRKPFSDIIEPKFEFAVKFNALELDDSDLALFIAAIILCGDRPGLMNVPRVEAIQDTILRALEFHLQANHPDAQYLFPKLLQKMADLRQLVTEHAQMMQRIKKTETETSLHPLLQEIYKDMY
Method: as §1, with “PPARdelta” for “PPARalpha”, “In analogy to the assay described for PPARalpha, the PPARdelta reporter cell line also” for “It”, “(GR-GAL4-humanPPARdelta-LBD)” for “(GR-GAL4-humanPPARalpha-LBD)”, “GR-GAL4-humanPPARdelta-LBD” for “GR-GAL4-humanPPARalpha-LBD”, “little” for “weak”, “stimulate” for “stimulate the”
The production of the stable PPARdelta reporter cell line is based on a stable HEK-cell clone which was stably transfected with a luciferase reporter element. This step was already described above in the section “construction of the PPARalpha reporter cell line”. […]
The activity of PPARdelta agonists is determined in a 3-day assay in exact analogy to the procedure already described for the PPARalpha reporter cell line except that the PPARdelta reporter cell line and a specific PPARdelta agonist was used as a standard to control test efficacy.

PPARdelta [1] = conditions: diabetic animal model; cited from earlier work
PPARdelta [2] = target: T3, PPARdelta (Macaca mulatta, UniProt I0FFS1); conditions: obese, insulin resistant rhesus monkeys; cited from earlier work
T3 sequence (I0FFS1 1-441): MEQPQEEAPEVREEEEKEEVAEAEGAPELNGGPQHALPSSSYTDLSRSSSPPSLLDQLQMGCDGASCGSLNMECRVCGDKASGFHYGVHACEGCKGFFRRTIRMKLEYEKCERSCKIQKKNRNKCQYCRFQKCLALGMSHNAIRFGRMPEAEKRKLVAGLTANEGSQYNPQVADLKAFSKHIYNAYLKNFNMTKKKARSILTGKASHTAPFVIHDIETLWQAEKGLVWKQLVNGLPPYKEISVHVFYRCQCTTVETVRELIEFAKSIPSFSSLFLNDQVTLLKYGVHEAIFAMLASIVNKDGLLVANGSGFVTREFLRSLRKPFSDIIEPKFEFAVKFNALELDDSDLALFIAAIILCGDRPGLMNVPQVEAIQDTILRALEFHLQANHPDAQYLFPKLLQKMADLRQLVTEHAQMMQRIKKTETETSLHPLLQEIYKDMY

PPARdelta/PPARalpha [3] = conditions: rhesus and cynomolgus monkeys; cited from earlier work
PPARdelta/PPARalpha [4] = conditions: two weeks clinical trials, healthy volunteers; cited from earlier work
[5] = read-out: PPARalpha EC50 values (range given)
[6] = GR-GAL4-humanPPARalpha-LBD, read-out: PPARalpha EC50

Row | Structure (SMILES) | EC50 (human PPARalpha; [5]) [nM] | EC50 (human PPARdelta) [nM] | EC50 (human PPARalpha; [6]) [nM] | other results
1 | O=c1[nH]c(-c2ccc(S(=O)(=O)N3CCc4cc(-c5ccc(C(F)(F)F)cc5)ccc43)cc2Cl)no1 [Example 3, 3-{2-Chloro-4-[5-(4-trifluoromethyl-phenyl)-2,3-dihydro-indole-1-sulfonyl]-phenyl}-4H-[1,2,4]oxadiazol-5-one] | 1000 to 5000 | 3 | 1110 | 
2 | CCCc1c(OCCCOc2ccc(OCC(=O)O)cc2)ccc(C(C)=O)c1O [Example L-165041] |  |  |  | plasma cholesterol (PPARdelta [1]): raises
3 | Cc1cc(SCc2sc(-c3ccc(C(F)(F)F)cc3)nc2C)ccc1OCC(=O)O [GW501516] |  |  |  | HDL-cholesterol (PPARdelta [2]): raises; insulin levels (PPARdelta [2]): decreases; plasma LDL-cholesterol (PPARdelta [2]): decreases; triglycerides (PPARdelta [2]): decreases
4 | CCCc1c(OCCCSc2nnc(SCC(=O)O)s2)ccc(C(C)=O)c1O [YM-16638] |  |  |  | plasma lipids (PPARdelta/PPARalpha [3]): significantly lowers; plasma lipids (PPARdelta/PPARalpha [4]): acts in a similar manner

Second part, led by results:

Row | EC50 (human PPARalpha; [5]) [nM] | EC50 (human PPARdelta) [nM] | EC50 (human PPARalpha; [6]) [nM] | Structure (SMILES) | other results
5 | 1000 to 5000 |  |  | O=c1[nH]c(-c2ccc(S(=O)(=O)N3CCc4cc(-c5ccc(C(F)(F)F)cc5)ccc43)cc2)no1 [Example 1, 3-{4-[5-(4-Trifluoromethyl-phenyl)-2,3-dihydro-indole-1-sulfonyl]-phenyl}-4H-[1,2,4]oxadiazol-5-one] | 
6 | 1000 to 5000 | 15 | 3520 | CC1(C)CN(S(=O)(=O)c2ccc(-c3nc(=O)o[nH]3)cc2)c2ccc(-c3ccc(C(F)(F)F)cc3)cc21 [Example 2, 3-{4-[3,3-Dimethyl-5-(4-trifluoromethyl-phenyl)-2,3-dihydro-indole-1-sulfonyl]-phenyl}-2H-[1,2,4]oxadiazol-5-one] | 
7 | 1000 to 5000 |  |  | CC1(C)CN(S(=O)(=O)c2ccc(-c3nc(=O)o[nH]3)c(Cl)c2)c2ccc(-c3ccc(C(F)(F)F)cc3)cc21 [Example 4, 3-{2-Chloro-4-[3,3-dimethyl-5-(4-trifluoromethyl-phenyl)-2,3-dihydro-indole-1-sulfonyl]-phenyl}-2H-[1,2,4]oxadiazol-5-one] | 
8 | 1000 to 5000 | 35 | 1640 | O=c1nc(-c2ccc(S(=O)(=O)N3CCc4ccc(-c5ccc(C(F)(F)F)cc5)cc4C3)cc2Cl)[nH]o1 [Example 5, 3-{2-Chloro-4-[7-(4-trifluoromethyl-phenyl)-3,4-dihydro-1H-isoquinoline-2-sulfonyl]-phenyl}-2H-[1,2,4]oxadiazol-5-one] | 

From US8173674B2, “Sulfonyl-phenyl-2H-[1,2,4]oxadiazol-5-one derivatives, processes for their preparation and their use as pharmaceuticals” (Sanofi-Aventis, priority 2006, dated 2012)
